Results as given in patent US9232790B2, “Antimicrobial cleansing compositions” (KIMBERLY-CLARK WORLDWIDE, INC., priority 2011, dated 2016).

How the values were obtained:
Format in all cases: cell-based
E. faecalis (ATCC 29212) = assay: Impact of CAPB on cationic biocides, 60 second contact test against E. faecalis; details: 0.3% active, 60 seconds contact, 0.3 g/L bovine serum albumin; for LOG10 CFU/ml Reduction, w/ CAPB: with CAPB 3.5% w/w active; for LOG10 CFU/ml Reduction, w/o CAPB: without CAPB
Method: In this Example, the impact of cocamidopropyl betaine (CAPB) on the antimicrobial activity of cationic biocides against E. faecalis (ATCC 29212) was analyzed.
Specifically, E. faecalis was contacted for 60 seconds in a 0.3 g/L solution of bovine serum albumin mixed with a solution containing a cationic biocide, with or without CAPB (3.5% w/w active).

[1] = system: P. aeruginosa (ATCC 15442); assay: Impact of CAPB on cationic biocides, 60 second contact test against P. aeruginosa; details: 0.3% active, 60 seconds contact, 0.3 g/L bovine serum albumin; for LOG10 CFU/ml Reduction, w/ CAPB: with CAPB 3.5% w/w active; for LOG10 CFU/ml Reduction, w/o CAPB: without CAPB
Method: In this Example, the impact of cocamidopropyl betaine (CAPB) on the antimicrobial activity of cationic biocides against P. aeruginosa (ATCC 15442) was analyzed.
Specifically, P. aeruginosa was contacted for 60 seconds in a 0.3 g/L solution of bovine serum albumin and mixed with a solution containing a cationic biocide, with or without CAPB (3.5% w/w active).

E. coli K12 (ATCC 29425) [2] = assay: Impact of CAPB on cationic biocides, 60 second contact test against E. coli K12; details: 0.3% active, 60 seconds contact, 0.3 g/L bovine serum albumin; for LOG10 CFU/ml Reduction, w/ CAPB: with CAPB 3.5% w/w active; for LOG10 CFU/ml Reduction, w/o CAPB: without CAPB
Method: In this Example, the impact of cocamidopropyl betaine (CAPB) on the antimicrobial activity of cationic biocides against E. coli K12 (ATCC 29425) was analyzed.
Specifically, E. coli K12 was contacted for 60 seconds in a 0.3 g/L solution of bovine serum albumin mixed with a solution containing a cationic biocide, with or without CAPB (3.5% w/w active).

S. aureus (ATCC 6538) = assay: Impact of CAPB on cationic biocides, 60 second contact test against S. aureus; details: 0.3% active, 60 seconds contact, 0.3 g/L bovine serum albumin; for LOG10 CFU/ml Reduction, w/ CAPB: with CAPB 3.5% w/w active; for LOG10 CFU/ml Reduction, w/o CAPB: without CAPB
Method: In this Example, the impact of cocamidopropyl betaine (CAPB) on the antimicrobial activity of cationic biocides against S. aureus (ATCC 6538) was analyzed.
Specifically, S. aureus was contacted for 60 seconds in a 0.3 g/L solution of bovine serum albumin mixed with a solution containing a cationic biocide, with or without CAPB (3.5% w/w active).

E. coli K12 (ATCC 29425) [3] = assay: Impact of other betaine-based surfactants on benzalkonium chloride efficacy against E. coli K12; details: 60 seconds contact, 0.3 g/L bovine serum albumin; for LOG10 CFU/ml Reduction, 0.3% benzalkonium chloride + 3.5% surfactant: 0.3% benzalkonium chloride combined with 3.5% of the named betaine-based surfactant
Method: In this Example, the impact of other betaine-based surfactants on the antimicrobial activity of benzalkonium chloride against E. coli K12 (ATCC 29425) was analyzed.
Specifically, E. coli K12 was contacted for 60 seconds in a 0.3 g/L solution of bovine serum albumin mixed with a solution containing benzalkonium chloride, with or without a betaine-based surfactant (3.5% w/w active).

Molecule | LOG10 CFU/ml Reduction, w/ CAPB (E. faecalis (ATCC 29212)) [LOG10 CFU/ml] | LOG10 CFU/ml Reduction, w/o CAPB (E. faecalis (ATCC 29212)) [LOG10 CFU/ml] | LOG10 CFU/ml Reduction, w/ CAPB [1] [LOG10 CFU/ml] | LOG10 CFU/ml Reduction, w/o CAPB [1] [LOG10 CFU/ml] | LOG10 CFU/ml Reduction, w/ CAPB (E. coli K12 (ATCC 29425) [2]) [LOG10 CFU/ml] | LOG10 CFU/ml Reduction, w/o CAPB (E. coli K12 (ATCC 29425) [2]) [LOG10 CFU/ml] | LOG10 CFU/ml Reduction, w/ CAPB (S. aureus (ATCC 6538)) [LOG10 CFU/ml] | LOG10 CFU/ml Reduction, w/o CAPB (S. aureus (ATCC 6538)) [LOG10 CFU/ml] | LOG10 CFU/ml Reduction, 0.3% benzalkonium chloride + 3.5% surfactant (E. coli K12 (ATCC 29425) [3]) [LOG10 CFU/ml] | LOG10 CFU/ml Reduction, w/ CAPB (S. aureus (ATCC 6538); listed as didecyldimonium chloride) [LOG10 CFU/ml] | LOG10 CFU/ml Reduction, 0.3% benzalkonium chloride (E. coli K12 (ATCC 29425) [3]; 0.3% benzalkonium chloride alone) [LOG10 CFU/ml]
N=C(NCCCCCCNC(=N)NC(=N)Nc1ccc(Cl)cc1)NC(=N)Nc1ccc(Cl)cc1.O=C(O)[C@H](O)[C@@H](O)[C@H](O)[C@H](O)CO.O=C(O)[C@H](O)[C@@H](O)[C@H](O)[C@H](O)CO [Chlorhexidine gluconate] | <3.3 | <3.3 | <3.3 | >5.7 | <3.1 | 5.5 | <2.4 | 3.2 | – | – | –
CC(C)(C)CC(C)(C)c1ccc(OCCOCC[N+](C)(C)Cc2ccccc2)cc1 [Benzethonium chloride] | <3.3 | 4.8 | <3.3 | >5.7 | <3.1 | >5.5 | <2.4 | >4.9 | – | – | –
Lauramidopropyl betaine | – | – | – | – | – | – | – | – | <3.0 | – | –
CCCCCCCCCC[N+](C)(C)CCCCCCCCCC.[Cl-] [Didecyldimonium chloride] | <3.3 | >5.7 | <3.3 | >5.7 | <3.1 | 4.5 | 4 | >4.9 | – | 4.0 | –
CCCCCCCCCCCC[N+](C)(C)CC(=O)[O-] [Lauryl betaine] | – | – | – | – | – | – | – | – | <3.1 | – | –
Coco-betaine | – | – | – | – | – | – | – | – | <3.1 | – | –
Meadowfoamamidopropyl betaine | – | – | – | – | – | – | – | – | <3.0 | – | –
Benzalkonium chloride | <3.3 | >5.7 | <3.3 | >5.7 | <3.1 | >5.5 | <2.4 | >4.9 | – | – | >5.5
